Data: patent US10156556B2, “Method for determining ecological risks of polycyclic aromatic hydrocarbon in water body” (priority 2013, dated 2018)

What was measured:
[1] = relative to benzoapyrene; Nisbet and Lagoy 1992; cited from earlier work
[2] = tested on: Barbel fish; details: chronic toxicity data, PAN Pesticide Database and EPA EcoTox Database; cited from earlier work
[3] = tested on: Mussel; details: chronic toxicity data, PAN Pesticide Database and EPA EcoTox Database; cited from earlier work
[4] = tested on: Daphnia magna; details: chronic toxicity data, PAN Pesticide Database and EPA EcoTox Database; cited from earlier work
[5] = tested on: Frog; details: chronic toxicity data, PAN Pesticide Database and EPA EcoTox Database; cited from earlier work
[6] = tested on: Green algae; details: chronic toxicity data, PAN Pesticide Database and EPA EcoTox Database; cited from earlier work
[7] = tested on: water ecological system of the lake; experiment: Ecological risk quotient, Monte Carlo sampling (10,000 times); details: single pollutant, water body of the lake
From the text: (5) calculating ecological risk quotient values RQi of specific polycyclic aromatic hydrocarbon pollutants: calculating according to a formula
[formula] wherein ECi is the environmental concentration of an i^th polycyclic aromatic hydrocarbon pollutant, TEFi is a toxic equivalency factor of the i^th polycyclic aromatic hydrocarbon pollutant relative to the benzoapyrene, and a concrete numerical value is from literature, and HC5 is the benzoapyrene concentration values of 95% of species in the protected water ecological system; conducting random sampling for 10,000 times using a Monte Carlo sampling method according to the concentration distribution characteristics of different polycyclic aromatic hydrocarbons; and drawing cumulative probability distribution curves of the ecological risk quotient values of each polycyclic aromatic hydrocarbon pollutant according to the Monte Carlo sampling result, and analyzing the probability that the risk quotient values thereof RQi are no less than one; and
(6) calculating the total ecological risk quotient value RQt of each polycyclic aromatic hydrocarbon pollutant: calculating according to a formula […]

[8] = tested on: Chironomidae; details: chronic toxicity data, PAN Pesticide Database and EPA EcoTox Database; cited from earlier work
[9] = tested on: 95% of species in the protected water ecological system; experiment: Calculation of HC5 from log-transformed NOEC data; details: HC5=exp(Xm-KLSm), six species, KL 1.81
From the text: (3) calculating benzoapyrene concentration values HC5 of 95% of species in the protected water ecological system: i.e., performing logarithmic transformation on the toxicity data and applying a formula HC5=exp(Xm−KLSm)′ to calculate, wherein m is the number of species, Xm means the arithmetic mean value of the toxicity data of the m species after the logarithmic transformation; Sm means the standard deviation of the toxicity data of the m species after the logarithmic transformation; and KL is a regulation factor, obtained from literature;
(3) Calculating the benzoapyrene concentration values HC5 of 95% of species in the protected water ecological system: logarithmic transformation is performed on the toxicity data in Table 1 to obtain that the arithmetic mean value Xm 3.77 ug/L and the standard deviation Sm 4.95 ug/L, and calculation is conducted using a formula HC5=exp(Xm−KLSm)i, wherein the regulation factor KL is 1.81 (from published literature: Aldenberg and Slob, Confidence limits for hazardous concentrations based on logistically distributed NOEC toxicity data, 1991), and the HC5 value is obtained as 0.0056 ug/L.

Row | SMILES | Toxic equivalency factor [1] | other results
1 | c1cc2c3c(cccc3c1)CC2 [Ace] | 0.001 | 
2 | C1=Cc2cccc3cccc1c23 [Acy] | 0.001 | 
3 | c1ccc2cc3ccccc3cc2c1 [Ant, anthracene] | 0.01 | 
4 | c1ccc2c(c1)cc1ccc3cccc4ccc2c1c34 [B[a]P, benzoapyrene] | 1 | NOEC [2]: 54.2 µg/L; NOEC [3]: 500 µg/L; NOEC [4]: 0.02 µg/L; NOEC [5]: 10 µg/L; NOEC [6]: 250000 µg/L; probability of the risk quotient value RQi greater than or equal to one [7]: 54.4%; NOEC [8]: 5 µg/L; HC5 (concentration value of 95% of species in the protected water ecological system) [9]: 0.0056 ug/L
5 | c1ccc2c(c1)-c1cccc3c1c-2cc1ccccc13 [B[b]F] | 0.1 | 
6 | c1cc2ccc3ccc4ccc5cccc6c(c1)c2c3c4c56 [B[ghi]P] | 0.01 | 
7 | c1ccc2cc3c(cc2c1)-c1cccc2cccc-3c12 [B[k]F] | 0.1 | 
8 | c1ccc2c(c1)ccc1c3ccccc3ccc21 [Chr] | 0.01 | 
9 | c1ccc2c(c1)ccc1cc3c(ccc4ccccc43)cc12 [DBA] | 1 | probability of the risk quotient value RQi greater than or equal to one [7]: 61.8%
10 | c1ccc2c(c1)-c1ccc3ccc4cccc5cc-2c1c3c45 [Ind] | 0.1 | 
11 | c1ccc2ccccc2c1 [Nap] | 0.001 | 
